Assay results taken from article PMC2902275 (Cancer prevention research (Philadelphia, Pa.), 2009).
pKi: −log10 of the molar value.

Target: HDAC3 (Homo sapiens, UniProt O15379)
Test: preliminary enzyme kinetics of HDAC3 inhibition
Format: biochemical

HDAC3, sequence (O15379 whole entry): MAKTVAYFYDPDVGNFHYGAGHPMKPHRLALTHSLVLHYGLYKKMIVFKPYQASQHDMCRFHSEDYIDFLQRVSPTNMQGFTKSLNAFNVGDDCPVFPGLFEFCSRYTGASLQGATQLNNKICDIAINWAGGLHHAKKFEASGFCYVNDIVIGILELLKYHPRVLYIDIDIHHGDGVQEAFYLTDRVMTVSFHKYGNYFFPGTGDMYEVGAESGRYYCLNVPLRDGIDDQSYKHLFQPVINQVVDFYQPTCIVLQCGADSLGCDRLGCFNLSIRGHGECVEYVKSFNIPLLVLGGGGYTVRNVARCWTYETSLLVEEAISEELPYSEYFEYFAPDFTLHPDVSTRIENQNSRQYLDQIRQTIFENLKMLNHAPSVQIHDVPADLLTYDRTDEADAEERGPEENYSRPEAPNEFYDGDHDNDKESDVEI

## C[Se]CCC(=O)C(=O)O [KMSB, α-keto-γ-methylselenobutyrate]
  pKi: ~4.52
